Among the test systems are ACHN renal; DU-145 prostate; LOX IMVI melanoma; MDA-MB-435; NCI-H226 lung; NCI-H23 lung; NCI-H460 lung; OVCAR-8 ovarian; PC-3 prostate; RXF 393 renal; SK-MEL-28 melanoma; SK-OV-3 ovarian; SNB-19 CNS; TK-10 renal; UO-31 renal.
Common to all, as to experiment: DTP human tumour cell line panel, 48 h

Molecules are shown by their SMILES.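 In this assay, cells in 96-well plates receive the compound at five concentrations for 48 hours. Endpoints are linearly interpolated between the surrounding concentrations. At the TGI there is no net growth.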

The term TGI denotes the concentration at which net growth stops. A lower TGI goes with more potent growth arrest. Turning to `COc1cc(O)c2c(=O)cc(C3(OC(C)=O)C=CC(OC4OC(CO)C(O)C(O)C4O)C=C3)oc2c1` (stereo not given), the total growth inhibition concentration (TGI) in the experiment on ACHN renal, in the experiment with DU-145 prostate, with LOX IMVI melanoma, in the experiment with MDA-MB-435, in the experiment with NCI-H226 lung and in the experiment with NCI-H23 lung was > 100 µM in each case. Besides, the TGI in the experiment on NCI-H460 lung, in the experiment with OVCAR-8 ovarian, with PC-3 prostate, in the experiment with RXF 393 renal, with SK-MEL-28 melanoma and with SK-OV-3 ovarian was > 100 µM each time. The total growth inhibition concentration (TGI) in the experiment with SNB-19 CNS, with TK-10 renal and in the experiment on UO-31 renal was > 100 µM throughout.

Take `Nc1nc(Cl)c(N)c(NCC2(CO)CC(O)C2)n1` (stereo not given): the TGI in the experiment on ACHN renal, in the experiment on DU-145 prostate, in the experiment on LOX IMVI melanoma, in the experiment on MDA-MB-435, in the experiment with NCI-H226 lung and in the experiment with NCI-H23 lung was > 100 µM throughout. Besides, the concentration for total growth inhibition (TGI) in the experiment on NCI-H460 lung, in the experiment on OVCAR-8 ovarian, with PC-3 prostate, with RXF 393 renal, in the experiment with SK-MEL-28 melanoma and in the experiment with SK-OV-3 ovarian was > 100 µM throughout. Further, the total growth inhibition concentration (TGI) in the experiment with SNB-19 CNS, with TK-10 renal and with UO-31 renal was > 100 µM throughout.

Take `O=Cc1cc(O)ccc1Br`: the TGI was 60 µM in the experiment on ACHN renal; > 100 µM in the experiment on DU-145 prostate; 33.4 µM in the experiment on LOX IMVI melanoma; 9.77 µM in the experiment on MDA-MB-435; > 91.7 µM in the experiment on NCI-H226 lung; 71 µM in the experiment on NCI-H23 lung. Besides, the TGI is > 100 µM with NCI-H460 lung; 53.7 µM in the experiment on OVCAR-8 ovarian; > 78.4 µM with PC-3 prostate; > 100 µM in the experiment with RXF 393 renal; > 100 µM with SK-MEL-28 melanoma; > 100 µM in the experiment with SK-OV-3 ovarian. The figures for the total growth inhibition concentration (TGI) with SNB-19 CNS, in the experiment on TK-10 renal and with UO-31 renal were > 100 µM, 99 µM and > 81 µM, respectively.

`C[N+](C)(C)C(Cc1c[nH]c(=S)[nH]1)C(=O)O` (stereo not given): the TGI with ACHN renal, with DU-145 prostate, in the experiment on LOX IMVI melanoma, in the experiment on MDA-MB-435, in the experiment with NCI-H226 lung and in the experiment on NCI-H23 lung was > 100 µM each time. The concentration for total growth inhibition (TGI) with NCI-H460 lung, in the experiment with OVCAR-8 ovarian, in the experiment with PC-3 prostate, in the experiment with RXF 393 renal, with SK-MEL-28 melanoma and with SK-OV-3 ovarian was > 100 µM in each case. Further, the TGI in the experiment on SNB-19 CNS, in the experiment on TK-10 renal and in the experiment with UO-31 renal was > 100 µM in each case.

With `Nc1cccc2cc(S(=O)(=O)Nc3ccc(C(=O)O)cc3)ccc12`, the TGI with ACHN renal, in the experiment on DU-145 prostate, with LOX IMVI melanoma, in the experiment on MDA-MB-435, with NCI-H226 lung and with NCI-H23 lung was > 100 µM throughout. Further, the TGI with NCI-H460 lung, with OVCAR-8 ovarian, with PC-3 prostate, in the experiment on RXF 393 renal, in the experiment with SK-MEL-28 melanoma and in the experiment on SK-OV-3 ovarian was > 100 µM throughout. The concentration for total growth inhibition (TGI) with SNB-19 CNS, in the experiment on TK-10 renal and with UO-31 renal was > 100 µM in each case.

Take `COC(=O)[C@H]1[C@H](OC(=O)[C@@H](OC)c2ccccc2)ON2CC[C@@H](OC(=O)c3ccccc3)[C@H]12`: the TGI in the experiment with ACHN renal is 25.6 µM; in the experiment on DU-145 prostate, > 100 µM; in the experiment with LOX IMVI melanoma, > 100 µM; in the experiment on MDA-MB-435, > 100 µM; in the experiment on NCI-H226 lung, > 100 µM; in the experiment on NCI-H23 lung, > 100 µM. In addition, the TGI with NCI-H460 lung, in the experiment with OVCAR-8 ovarian, in the experiment on PC-3 prostate, in the experiment on RXF 393 renal, in the experiment with SK-MEL-28 melanoma and in the experiment on SK-OV-3 ovarian was > 100 µM each time. Also, the TGI in the experiment with SNB-19 CNS, in the experiment on TK-10 renal and in the experiment with UO-31 renal was > 100 µM each time.

For `Cc1cc2c(cc1-c1cc3c(cc1C)C(C(C)C)=C(O)C(=O)/C3=C\Nc1cccc3c(N)cccc13)/C(=C/Nc1cccc3c(N)cccc13)C(=O)C(O)=C2C(C)C`, the total growth inhibition concentration (TGI) with ACHN renal, in the experiment on DU-145 prostate, in the experiment on LOX IMVI melanoma, in the experiment with MDA-MB-435, in the experiment on NCI-H226 lung and in the experiment with NCI-H23 lung was > 100 µM in each case. For the same compound, the concentration for total growth inhibition (TGI) with NCI-H460 lung, in the experiment on OVCAR-8 ovarian, in the experiment with PC-3 prostate, with RXF 393 renal, in the experiment on SK-MEL-28 melanoma and in the experiment with SK-OV-3 ovarian was > 100 µM throughout. Besides, the TGI with SNB-19 CNS, in the experiment with TK-10 renal and in the experiment with UO-31 renal was > 100 µM in each case.

Turning to `COC(=O)C1CCCCCCCCCCC12SCCCS2` (stereo not given), the TGI in the experiment on ACHN renal is 40.2 µM; in the experiment on DU-145 prostate, 39.2 µM; in the experiment on LOX IMVI melanoma it was 35.4 µM; with MDA-MB-435, 36.2 µM; in the experiment with NCI-H226 lung, 42.8 µM; with NCI-H23 lung, > 100 µM. Moreover, the TGI is > 100 µM with NCI-H460 lung; 48.8 µM in the experiment with OVCAR-8 ovarian; 50 µM with PC-3 prostate; 36.4 µM in the experiment on RXF 393 renal; 36.1 µM in the experiment on SK-MEL-28 melanoma; > 100 µM with SK-OV-3 ovarian. The TGI in the experiment with SNB-19 CNS turned out to be 83.2 µM; in the experiment with TK-10 renal, 41.6 µM; with UO-31 renal, 38.8 µM.

`ClCc1nc2cc(Cl)ccc2o1`: the TGI with ACHN renal was 3.33 µM; in the experiment with DU-145 prostate, 14.1 µM; in the experiment with LOX IMVI melanoma it was 6.74 µM; with MDA-MB-435, 8.07 µM; in the experiment on NCI-H226 lung it was 42.9 µM; in the experiment on NCI-H23 lung, 24.6 µM. Besides, the TGI was 31.6 µM in the experiment on NCI-H460 lung; 20 µM in the experiment on OVCAR-8 ovarian; 19.6 µM in the experiment with PC-3 prostate; 29.8 µM in the experiment on RXF 393 renal; 20.7 µM in the experiment with SK-MEL-28 melanoma; 28.9 µM in the experiment on SK-OV-3 ovarian. Moreover, the TGI in the experiment on SNB-19 CNS was determined as 21.5 µM; in the experiment with TK-10 renal, 7.9 µM; with UO-31 renal, 2.54 µM.

For the origin of these results see PubChem BioAssay (NCI).
